For one data set, the target named is T1, hMfsd2a (Homo sapiens, UniProt Q8NA29).
T1 sequence (Q8NA29 1-530 isoform Q8NA29-2): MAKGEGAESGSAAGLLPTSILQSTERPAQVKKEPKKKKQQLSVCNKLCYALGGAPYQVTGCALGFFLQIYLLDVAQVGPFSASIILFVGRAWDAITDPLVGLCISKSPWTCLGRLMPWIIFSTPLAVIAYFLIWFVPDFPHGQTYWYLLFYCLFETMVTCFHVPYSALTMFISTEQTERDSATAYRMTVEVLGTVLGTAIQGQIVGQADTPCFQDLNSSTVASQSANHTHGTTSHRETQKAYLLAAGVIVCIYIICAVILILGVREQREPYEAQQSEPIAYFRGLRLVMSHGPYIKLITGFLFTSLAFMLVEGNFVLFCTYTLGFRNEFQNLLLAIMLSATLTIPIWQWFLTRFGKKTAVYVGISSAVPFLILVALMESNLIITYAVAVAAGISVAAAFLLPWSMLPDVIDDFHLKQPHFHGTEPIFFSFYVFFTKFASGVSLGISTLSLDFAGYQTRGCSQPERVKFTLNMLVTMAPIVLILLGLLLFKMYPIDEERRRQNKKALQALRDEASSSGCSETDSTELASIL
Put plainly: single-cell flow cytometry uptake assay in transfected HEK293 cells. The following applies: read-out: apparent Km; 37 °C, 30 min, serum-free DMEM; labelled compound. Background: In flow cytometry, cells or beads pass a laser one at a time.

Substrate in data set [1]: C[N+](C)(C)CCOP(=O)([O-])OC[C@H](O)COC(=O)CCCCCCCCCCCNc1ccc([N+](=O)[O-])c2nonc12
The data set is described as follows: cells, lysate or membranes. The following applies: 37 °C, 30 min, serum-free DMEM, labelled compound.

On to LPC-16:1-NBD, for which the Michaelis constant (Km) at hMfsd2a was determined as 3 µM.

B1: hMfsd2a (Homo sapiens) (protein)
chain: T1 sequence (Q8NA29 1-530 isoform Q8NA29-2)
Consider B1, for which the Km in data set [1] was determined as 244 µM.

For orientation: Km means the substrate concentration at which the rate is half of its maximum.

(Values after paper PMC10013850 (Proceedings of the National Academy of Sciences of the …, 2023).)
